Measurements reported in paper PMC9145754, “Novel Soloxolone Amides as Potent Anti-Glioblastoma Candidates: Design, Synthesis, In Silico Analysis and Biological Activities In Vitro and In Vivo” (Pharmaceuticals, 2022).

How the values were obtained:
U87 glioblastoma cells = experiment: Annexin V-APC/PI apoptosis assay, U87; assay type: cell-based, human; details: for U87 Q4-2 (right upper quadrant, late apoptotic cells): 24 h, control 5.9%
Method: To evaluate which form of cell death was induced by compound 12 in glioblastoma cells, its ability to stimulate apoptosis, necrosis or autophagy was examined.
(§1) To quantify the percentage of cells undergoing apoptosis, glioblastoma U87 and U118 cells were seeded in 6-well plates at 2.8 × 10^5 cells/well in complete growth medium and incubated at standard conditions overnight followed by treatment with 12 at 4 µM for 24 h. Thereafter, the cells were harvested by trypsinization (TrypLE Express (Gibco, USA)) and centrifugation at 400 g for 5 min, washed with PBS and stained with 5 µL of Annexin V-APC (Sony Biotechnology Inc., San Jose, CA, USA) and 10 µL of propidium iodide (PI) (Invitrogen, Waltham, MA, USA) for 15 min at room temperature in the dark. After the incubation time, the cells were analyzed using a NovoCyte Flow Cytometer (ACEA Biosciences Inc., San Diego, CA, USA). For each sample, 10,000 events were acquired.

U118 glioblastoma cells = experiment: Annexin V-APC/PI apoptosis assay, U118; assay type: cell-based, human; details: for apoptosis, % of U118 cells: 12 at 4 µM
Method: as §1

U87 cells = experiment: Mitochondrial mass, MitoTracker Green; assay type: cell-based, human; details: 24 h
Method: Next, to evaluate whether the observed compound 12-driven disturbance of mitochondrial homeostasis in glioblastoma cells involved an alteration in mitochondrial abundance, U87 cells were treated with 12 at 2 and 4 µM for 24 h and stained with MitoTracker Green, a fluorescent probe accumulated in mitochondria ΔψM-independently. […] The obtained results agree well with published data: Yang et al. and Gibellini et al. found a similar increase in mitochondrial mass in RAW264.7 macrophages and colon carcinoma RKO cells treated with CDDO-Im and CDDO, respectively. We suppose that the observed triterpenoid-induced mitogenesis in glioblastoma cells is mediated by compensatory mechanisms in response to compound 12-triggered mitochondrial stress and that it plays a cytoprotective role—high mitochondrial mass is known to be highly correlated with chemotherapy-driven redundant production of reactive oxygen species (ROS) in tumor cells and to underlie their chemoresistance.
U87 cells were seeded at a density of 2.8 × 10^5 cells/well in 6-well plates and incubated overnight, followed by their treatment with 12 at 2 and 4 µM for 24 h. […] Thereafter, the cells were washed twice with PBS and analyzed by flow cytometry. In total, 10,000 events were recorded for each sample.

U87 glioblastoma = experiment: Subcutaneous U87 glioblastoma xenograft model; assay type: in vivo, Balb/C nude mice
Method: Given the high antitumor potential of 12 with respect to glioblastoma cells observed in vitro, we further questioned whether the investigated triterpenoid suppresses the growth of glioblastoma in a murine model. To understand this, 12 was intraperitoneally injected as a solution in 10% Tween-80 at a dosage of 20 mg/kg into nude mice bearing subcutaneously implanted human U87 glioblastomas (the experimental setup is presented in Figure 8A). […] Analysis of tumor weights also confirmed the high antitumor activity of 12, which decreased this parameter by 2.1- and 3.4-fold compared to the untreated and vehicle-treated groups, respectively (Figure 8D).
A xenograft model of tumor progression was induced by subcutaneous (s.c.) injection of U87 glioblastoma cells (2 × 10^7 cells/mL) suspended in 0.1 mL of saline buffer with 0.05 mL of Matrigel® Matrix (Corning, NY, USA) into the left flank of Balb/C nude mice. On day 5 after tumor transplantation, the mice were divided into three groups (n = 6 per group): (1) mice without treatment (control); (2) mice that received intraperitoneal (i.p.) injections of 10% Tween-80 (vehicle); and (3) mice that received i.p. injections of 12 in 10% Tween-80 at a dose of 20 mg/kg. The treatment was carried out thrice per week. The total number of injections was seven. During the experiment, the tumor volumes were determined three times a week using caliper measurements and were calculated as V= (D × d^2)/2, where D is the longest diameter of the tumor node and d is the shortest diameter of the tumor node perpendicular to D. The mice were sacrificed on day 21 after tumor transplantation and the tumors and brains were collected for subsequent histological and pharmacological analysis.
For the histological study, the tumor specimens were fixed in 10% neutral-buffered formalin (BioVitrum, St. Petersburg, Russia), dehydrated in ascending ethanols and xylols and embedded in HISTOMIX paraffin (BioVitrum, St. Petersburg, Russia). The paraffin sections (5 μm) were sliced on a Microm HM 355S microtome (Thermo Fisher Scientific, Waltham, MA, USA) and stained with hematoxylin and eosin. Extracellular matrix deposition was determined using Masson’s trichrome staining.
For the immunohistochemical study, the tumor sections (3–4 μm) were deparaffinized and rehydrated. Antigen retrieval was carried out after exposure in a microwave oven at 700 W. The samples were incubated with anti-Ki-67 (ab16667, Abcam, Boston, MA, USA), anti-α-SMA (ab5694, Abcam, USA) or anti-CD31 (ab182981, Abcam, USA) primary antibodies according to the manufacturer’s protocol. Then, the sections were incubated with secondary horseradish peroxidase (HPR)-conjugated antibodies, exposed to the 3,3′-diaminobenzidine (DAB) substrate (Rabbit Specific HRP/DAB (ABC) Detection IHC Kit, ab 64261, Abcam, USA) and stained with Mayer’s hematoxylin.
Morphometric analysis of tumor sections included evaluation of the numerical density (Nv) of mitoses and Ki-67-positive cells in a square unit of tumor tissue—3.2 × 10^6 μm^2 in this case. At least ten random fields from the tumor specimens of six mice in each group (60 testing fields in total) were studied.

[1] = 20 mg/kg i.p., seven injections
[2] = 20 mg/kg i.p., seven injections, day 21

CC1(C)C(=O)C(C#N)=C[C@]2(C)C3=CC(=O)[C@@H]4[C@@H]5C[C@@](C)(C(=O)NCCc6c[nH]c7ccccc67)CC[C@]5(C)CC[C@@]4(C)[C@]3(C)CC[C@@H]12 [compound 12]
U87 Q4-2 (right upper quadrant, late apoptotic cells) (U87 glioblastoma cells; 12 at 2 µM): 28%
U87 Q4-2 (right upper quadrant, late apoptotic cells) (U87 glioblastoma cells; 12 at 4 µM): 73.4%
necrotic cell death (left upper quadrant) (U87 glioblastoma cells; U87, 12 for 24 h): did not cause necrotic cell death
apoptosis, % of U118 cells (U118 glioblastoma cells; 6 h): 11.7%
apoptosis, % of U118 cells (U118 glioblastoma cells; 18 h): 34.4%
apoptosis, % of U118 cells (U118 glioblastoma cells; 24 h): 41.5%
number of necrotic cells (U118 glioblastoma cells; U118, different samples (2 and 4 µM; 6–24 h)): ≤ 10%
induction of mitochondrial biogenesis (U87 cells; U87, 12 at 2 µM): statistically insignificant
increase of mitochondrial mass compared to the control (U87 cells; U87, 12 at 4 µM): 1.6 fold
decrease in tumor weight compared to the untreated group (U87 glioblastoma; [1]): 2.1 fold
decrease in tumor weight compared to the vehicle-treated group (U87 glioblastoma; [1]): 3.4 fold
decrease in tumor volume compared to the control (U87 glioblastoma; [2]): 3 fold
decrease in tumor volume compared to the vehicle-treated group (U87 glioblastoma; [2]): 4.4 fold
decrease in numerical density of Ki-67-positive cells compared to the untreated control group (U87 glioblastoma; 20 mg/kg i.p., tumor tissue): 3.5 fold
decrease in numerical density of Ki-67-positive cells compared with vehicle-treated animals (U87 glioblastoma; 20 mg/kg i.p., tumor tissue): 2.4 fold
decrease in numerical density of mitotic cells (Nv) compared to the untreated control group (U87 glioblastoma; 20 mg/kg i.p., tumor tissue): 3.4 fold
decrease in numerical density of mitotic cells (Nv) compared with vehicle-treated animals (U87 glioblastoma; 20 mg/kg i.p., tumor tissue): 4 fold
collagen fiber content in tumor tissue (U87 glioblastoma; Masson's trichrome, versus untreated and vehicle-treated mice): decreased the collagen fiber content
expression of CD31 and α-SMA in tumor tissue (U87 glioblastoma; immunohistochemistry, versus control and vehicle-treated mice): increased the expression of both CD31 and α-SMA
